Square brackets hold non-standard residues; d marks the D form. Peptide text beside a SMILES is read from it. N(isopentyl)Gly = CC(C)CCNCC(=O)O; Nspe = C[C@H](NCC(=O)O)c1ccccc1; NhArg = N=C(N)NCCCCNCC(=O)O; Nlys = NCCCCNCC(=O)O
Assays:
[1] = system: Pseudomonas aeruginosa PA01 (ATCC 15692); type: cell-based; settings: lowest concentration completely inhibiting growth, 37 °C, 16 h; range 2–100 μM
Protocol: (§1) Escherichia coli K-12 wild-type strain (W3110/ATCC27325, F^–, λ^–, rpoS(Am), rph-1, Inv(rrnD-rrnE)), Pseudomonas aeruginosa PA01 (ATCC 15692) Staphylococcus aureus (3R7089 strain Oxford/ATCC9144) and Staphylococcus epidermidis (laboratory strain from clinical isolate) were selected for bacteriological studies as representative Gram-negative (E. coli and P. aeruginosa) and Gram-positive (S. aureus and S. epidermidis) species. Bacterial cultures were prepared by streaking bacterial strains onto LB agar plates with an inoculation loop and incubated overnight at 37 °C. A single colony was selected and placed in 5 mL of Iso-sensitest broth (Oxoid, ThermoScientific) and incubated with shaking for 16–18 h at 37 °C to provide liquid cultures for testing.
(§2) MIC values were obtained according to the protocol described by J. M. Andrews et al.[58] and were conducted in 96-well plates (Sarstedt). Bacteria were grown from overnight cultures in Iso-sensitest broth to an A650nm of 0.07 equivalent to a 0.5 MacFarland standard (240 μM BaCl2 in 0.18 M H2SO4). This culture was diluted ten-fold with Iso-sensitest broth before use. Peptoids were initially dissolved in DMSO (5 mM) and diluted further in Iso-sensitest broth to achieve a concentration range of 4–200 μM using 2-fold serial dilutions. 50 μl of inoculum and 50 μl of peptoid solution were added to each test well (final concentration range of 2–100 μM). Experiments were performed in triplicate. A positive control for bacterial growth contained only the inoculum and Iso-sensitest broth. Other controls contained the inoculum and serial dilutions of ampicillin (from 250 μg mL^–1 to 2 μg mL^–1), serial dilutions of DMSO and the inoculum to confirm no inhibitory effect on bacterial growth, and Iso-sensitest broth alone as a sterile control. […] Quantitative data was attained from absorbance values using a Biotek Synergy H4 plate reader.
(§3) Antibacterial MIC determination
as §1, with “(W3110 / ATCC27325, F-, λ-,” for “(W3110/ATCC27325, F^–, λ^–,”, “Oxford / ATCC9144)” for “Oxford/ATCC9144)”, “°C.” for “°C. A single colony was selected and placed in 5 mL of Iso-sensitest broth (Oxoid, ThermoScientific) and incubated with shaking for 16–18 h at 37 °C to provide liquid cultures for testing.”
(§4) A single colony was selected and placed in 5 mL of Iso-sensitest broth (Oxoid, ThermoScientific) and incubated with shaking for 16-18 h at 37 °C to provide liquid […]
(§5) MIC values were obtained according to the protocol described by J. M. Andrews et al.1 and were conducted in 96-well plates (Sarstedt). Bacteria were grown from overnight cultures in Iso-sensitest broth to an A650nm of 0.07 equivalent to a 0.5 MacFarland standard (240 μM BaCl2 in 0.18 M H2SO4). This culture was diluted ten-fold with Iso-sensitest broth before use. Peptoids were initially dissolved in DMSO (5 mM) and diluted further in Iso-sensitest broth to achieve a concentration range of 4 – 200 µM using 2-fold serial dilutions. 50 μl of inoculum and 50 μl of peptoid solution were added to each test well (final concentration range of 2 – 100 µM). Experiments were performed in triplicate. A positive control for bacterial growth contained only the inoculum and Iso-sensitest broth. Other controls contained the inoculum and serial dilutions of ampicillin (from 250 µg/mL to 2 µg/mL), serial dilutions of DMSO and the inoculum to confirm no inhibitory effect on bacterial growth, and Iso-sensitest broth alone as a sterile control. […]
(§6) growth after incubation at 37 °C for 16 h with shaking. Quantitative data was attained from absorbance values using a Biotek Synergy H4 plate reader.

[2] = system: Escherichia coli K-12 wild-type strain (W3110/ATCC27325); type: cell-based; settings: lowest concentration completely inhibiting growth, 37 °C, 16 h; range 2–100 μM
Protocol: as §1, §2, §3
as §1, with “(W3110 / ATCC27325, F-, λ-,” for “(W3110/ATCC27325, F^–, λ^–,”, “Oxford / ATCC9144)” for “Oxford/ATCC9144)”, “°C.” for “°C. A single colony was selected and placed in 5 mL of Iso-sensitest broth (Oxoid, ThermoScientific) and incubated with shaking for 16–18 h at 37 °C to provide liquid cultures for testing.”
as §4, §5, §6

[3] = system: Staphylococcus aureus (3R7089 strain Oxford/ATCC9144); type: cell-based; settings: lowest concentration completely inhibiting growth, 37 °C, 16 h; range 2–100 μM
Protocol: as §1, §2, §3
as §1, with “(W3110 / ATCC27325, F-, λ-,” for “(W3110/ATCC27325, F^–, λ^–,”, “Oxford / ATCC9144)” for “Oxford/ATCC9144)”, “°C.” for “°C. A single colony was selected and placed in 5 mL of Iso-sensitest broth (Oxoid, ThermoScientific) and incubated with shaking for 16–18 h at 37 °C to provide liquid cultures for testing.”
as §4, §5, §6

[4] = system: Staphylococcus epidermidis (laboratory strain from clinical isolate); type: cell-based; settings: lowest concentration completely inhibiting growth, 37 °C, 16 h; range 2–100 μM
Protocol: as §1, §2, §3
as §1, with “(W3110 / ATCC27325, F-, λ-,” for “(W3110/ATCC27325, F^–, λ^–,”, “Oxford / ATCC9144)” for “Oxford/ATCC9144)”, “°C.” for “°C. A single colony was selected and placed in 5 mL of Iso-sensitest broth (Oxoid, ThermoScientific) and incubated with shaking for 16–18 h at 37 °C to provide liquid cultures for testing.”
as §4, §5, §6

[5] = Skin cell toxicity assay with HaCaT (alamarBlue); type: cell-based, human; settings: human, HaCaT cells (keratinocytes), ED50 HaCaT
Protocol: The activity of our peptoid library was assessed against both bacterial and mammalian cells to gain a broader understanding of the factors that lead to effective and selective antimicrobial peptoids. We screened for broad-spectrum antibacterial activity against Gram-negative (Escherichia coli and Pseudomonas aeruginosa) and Gram-positive (Staphylococcus aureus and S. epidermidis) bacteria. The toxicity of the library was also assessed against two mammalian cell lines; HaCaT spontaneously transformed aneuploid keratinocytes were employed to model toxicity against human skin cells and HepG2, a cell line derived from a human liver carcinoma, were used as a study on polarised human hepatocytes. Detailed methods for these assays can be found in the ESI. ^‡ […]
Please note – ED50, the median effective dose, was defined as the dose that kills 50% of cells.
Cytotoxicity analyses were performed in 96-well plates (Costar, Fisher Scientific) using alamarBlue® (Invitrogen) for cell viability detection using a modified protocol as described previously. HepG2 or HaCaT cells were subcultured at 37 °C, 5% CO2 in DMEM high glucose supplemented with heat-inactivated foetal bovine sera (FBS, 10%; Biosera Ltd) and penicillin/streptomycin (P/S, 1%). Cells were counted using a Neubauer Improved Haemocytometer. HepG2 cells were seeded 1 day prior to treatment in 96 well plates at a concentration of 2 × 10^5 cells per mL in 100 μL of medium (2 × 10^4 cells per well). Then cells were pre-incubated with the compounds in triplicate in a dilution series in triplicate from 2–100 μM (5 mM stock solutions in DMSO diluted from 100 μM to 3 μM; untreated cells with DMSO as a negative control) in 50 μl of the media for 1 hour. Afterwards, 40 μL were removed from each well before the addition of 90 μL of the media, followed by incubation for 24 hours at 37 °C, 5% CO2. Then, 10 μL of alamarBlue® (Invitrogen) was added to each well before a 2 hour incubation prior to assessing cell viability using a fluorescent plate reader (Biotek; Ex 560 nm/Em 600 nm). All data were measured in triplicate on a minimum of two occasions to ensure a robust data set was collected. The ED50 values were calculated from the dose response results achieved from the serial dilutions. […]
Cells were counted using a Neubauer Improved
Haemocytometer. […]
µM to 3 µM; untreated cells with DMSO as a negative control) in 50 µl of the media for 1 hour.
Afterwards, 40 µL were removed from each well before the addition of 90 µL of the media, followed by incubation for 24 hours at 37 °C, 5% CO2. Then, 10 µL of alamarBlue® (Invitrogen) was added to each well before a 2 hour incubation prior to assessing cell viability using a fluorescent plate reader (Biotek; Ex 560 nm / Em 600 nm). All data was measured in triplicate on a minimum of two occasions to ensure a robust data set was collected. The ED50 values were calculated from the dose response results achieved from the serial dilutions.
Skin Cell Toxicity assay with HaCaT […]
alamarBlue® (Invitrogen) for cell viability detection. HaCaT cells were subcultured at 37 °C, 5% CO2 in DMEM high glucose supplemented with heat-inactivated foetal bovine sera (FBS, 10%; Biosera Ltd) and penicillin/streptomycin (P/S, 1%). Cells were counted using a Neubauer Improved Haemocytometer. HaCaT cells were seeded in the plates 24 hours prior to treatment in 96 well plates at a concentration of 2x10^5 cells/mL in 100 µL of medium (2x10^4 cells/well).
Empty wells were filled with 100 µL PBS. After 24 hours, cells were incubated with the compounds in a dilution series in triplicate from 2 – 100 µM (5 mM stock solutions in DMSO diluted from 100 µM to 3 µM; Amphotericin B was used as a positive control and untreated cells with DMSO as a negative control) in 50 µL of the media for 1 hour. Afterwards, 40 µl was removed from each well, 90 µL of medium was added to each well and the cells incubated for 24 hours at 37 °C, 5% CO2. 10 µL of alamarBlue® (Invitrogen) was added to each well before […]

| Compound | MIC P. aeruginosa [1] [µM] | MIC E. coli [2] [µM] | MIC S. aureus [3] [µM] | MIC S. epidermidis [4] [µM] | CC50 at 24 h [5] [µM] |
| --- | --- | --- | --- | --- | --- |
| C[C@@H](c1ccccc1)N(CC(N)=O)C(=O)CN(C(=O)CN(CCCCNC(=N)N)C(=O)CN(C(=O)CN(C(=O)CN(CCCCNC(=N)N)C(=O)CN(C(=O)CN(C(=O)CNCCCCNC(=N)N)[C@@H](C)c1ccccc1)[C@@H](C)c1ccccc1)[C@@H](C)c1ccccc1)[C@@H](C)c1ccccc1)[C@@H](C)c1ccccc1 [Peptoid 35, (NhArgNspeNspe)3] (H-[NhArg][Nspe][Nspe][NhArg][Nspe][Nspe][NhArg][Nspe][Nspe]-NH2; N-terminus assumed) | 50 | 6 | 2 | 2 | – |
| N=C(N)NCCCCNCC(=O)N(CC(=O)N(CC(=O)N(CCCCNC(=N)N)CC(=O)N(CC(=O)N(CC(=O)N(CCCCNC(=N)N)CC(=O)N(CC(=O)N(CC(N)=O)Cc1cccc(F)c1)Cc1cccc(F)c1)Cc1cccc(F)c1)Cc1cccc(F)c1)Cc1cccc(F)c1)Cc1cccc(F)c1 [Peptoid 37, (NhArgNmfbNmfb)3] | 25 | 6 | 2 | 1 | – |
| CC(C)CCN(CC(=O)N(CC(N)=O)[C@@H](C)c1ccccc1)C(=O)CN(CCCCNC(=N)N)C(=O)CN(C(=O)CN(CCC(C)C)C(=O)CN(CCCCNC(=N)N)C(=O)CN(C(=O)CN(CCC(C)C)C(=O)CN(CCCCNC(=N)N)C(=O)CN(C(=O)CN(CCC(C)C)C(=O)CNCCCCNC(=N)N)[C@@H](C)c1ccccc1)[C@@H](C)c1ccccc1)[C@@H](C)c1ccccc1 [Peptoid 38, (NhArgNhLeuNspe)4] (H-[NhArg][N(isopentyl)Gly][Nspe][NhArg][N(isopentyl)Gly][Nspe][NhArg][N(isopentyl)Gly][Nspe][NhArg][N(isopentyl)Gly][Nspe]-NH2; N-terminus assumed) | 25 | 13 | 1 | 2 | – |
| CC(C)CCN(CC(=O)N(CC(N)=O)[C@@H](C)c1ccccc1)C(=O)CN(CCCCNC(=N)N)C(=O)CN(C(=O)CN(CCC(C)C)C(=O)CN(CCCCNC(=N)N)C(=O)CN(C(=O)CN(CCC(C)C)C(=O)CNCCCCNC(=N)N)[C@@H](C)c1ccccc1)[C@@H](C)c1ccccc1 [Peptoid 39, (NhArgNhLeuNspe)3] (H-[NhArg][N(isopentyl)Gly][Nspe][NhArg][N(isopentyl)Gly][Nspe][NhArg][N(isopentyl)Gly][Nspe]-NH2; N-terminus assumed) | 100 | – | 3 | 2 | – |
| C[C@@H](c1ccccc1)N(CC(N)=O)C(=O)CN(C(=O)CN(CCCCN)C(=O)CN(C(=O)CN(C(=O)CN(CCCCN)C(=O)CN(C(=O)CN(C(=O)CN(CCCCNC(=N)N)C(=O)CN(C(=O)CN(C(=O)CNCCCCNC(=N)N)[C@@H](C)c1ccccc1)[C@@H](C)c1ccccc1)[C@@H](C)c1ccccc1)[C@@H](C)c1ccccc1)[C@@H](C)c1ccccc1)[C@@H](C)c1ccccc1)[C@@H](C)c1ccccc1 [Peptoid 42, (NhArgNspeNspe)2(NLysNspeNspe)2] (H-[NhArg][Nspe][Nspe][NhArg][Nspe][Nspe][Nlys][Nspe][Nspe][Nlys][Nspe][Nspe]-NH2) | 17 | 17 | 17 | – | 15 |
| C[C@@H](c1ccccc1)N(CC(N)=O)C(=O)CN(C(=O)CN(CCCCN)C(=O)CN(C(=O)CN(C(=O)CN(CCCCN)C(=O)CN(C(=O)CN(C(=O)CN(CCCCNC(=N)N)C(=O)CN(C(=O)CN(C(=O)CNCCCCN)[C@@H](C)c1ccccc1)[C@@H](C)c1ccccc1)[C@@H](C)c1ccccc1)[C@@H](C)c1ccccc1)[C@@H](C)c1ccccc1)[C@@H](C)c1ccccc1)[C@@H](C)c1ccccc1 [Peptoid 43, (NLysNspeNspe)(NhArgNspeNspe)(NLysNspeNspe)2] (H-[Nlys][Nspe][Nspe][NhArg][Nspe][Nspe][Nlys][Nspe][Nspe][Nlys][Nspe][Nspe]-NH2) | 17 | 17 | 17 | – | 33 |
| C[C@@H](c1ccccc1)N(CC(N)=O)C(=O)CN(C(=O)CN(CCCCN)C(=O)CN(C(=O)CN(C(=O)CN(CCCCNC(=N)N)C(=O)CN(C(=O)CN(C(=O)CN(CCCCN)C(=O)CN(C(=O)CN(C(=O)CNCCCCNC(=N)N)[C@@H](C)c1ccccc1)[C@@H](C)c1ccccc1)[C@@H](C)c1ccccc1)[C@@H](C)c1ccccc1)[C@@H](C)c1ccccc1)[C@@H](C)c1ccccc1)[C@@H](C)c1ccccc1 [Peptoid 44, [(NhArgNspeNspe)(NLysNspeNspe)]2] (H-[NhArg][Nspe][Nspe][Nlys][Nspe][Nspe][NhArg][Nspe][Nspe][Nlys][Nspe][Nspe]-NH2) | 67 | 17 | 17 | – | 33 |

— article PMC6072100, “Exploring the links between peptoid antibacterial activity and toxicity” (MedChemComm, 2017)
